Results taken from US4109011A, “Insecticide carbamates of N-(polychloroallyl)-amino-phenols” (priority 1975, dated 1978).
Where two headings read alike, the source gives them in different places.

Legend:
Format in all cases: in vivo
Macrosiphum Euphorbiae = experiment: Biological activity on Macrosiphum euphorbiae (aphides), potato seedlings sprayed with aqueous dispersion
Experimental: Biological Activity on Macrosiphum Euphorbiae (Aphides)
Potato seedlings, cultivated in pots, were infested with adult aphide females and, after a few hours, were sprayed with an aqueous dispersion of the compounds listed in Table 6. The mortality percentage was determined 24 hours after the treatment (on control non-treated seedlings, the mortality percentage was 0).
(§1) To show the variation in activity from one compound to another, depending on the species used, the activities of compounds according to this invention were investigated at different concentrations, expressed as percent of active principle, on various infesting species. The mortality percentage was computed in the same way as in the preceding examples.

Pieris Brassicae [1] = experiment: Persistence of insecticidal activity in the field, Pieris brassicae on cauliflower plants; details: 0.5 percent; for mortality at 0.5 %: read-out: Mortality Percent of Pieris Brassicae Larvae
Text: The persistence of insecticidal activity in the field using the insect Pieris brassicae was examined as follows:
Cauliflower plants grown under natural conditions in the field were sprinkled with an aqueous suspension of compounds according to this invention identified hereinabove as M 7361 and M 8157. For purposes of comparison, cauliflower plants were sprinkled with an aqueous suspension of a compound according to U.S. Pat. No. 3,819,678, identified hereinabove as M 7481.
After the respective time periods shown in Table 15, leaves of the sprinkled plants were picked and brought to the laboratory where they were infested with 10-day old larvae of Pieris brassicae and then kept under observation. The percent of mortality of the insects was determined 48 hours after infestation in all cases. The percent mortality of the control, unsprinkled cauliflower leaves, was zero.

Pieris Brassicae [2] = experiment: Biological activity on Pieris brassicae larvae, sprayed cut cauliflower leaves; details: read-out: % mort. Pieris Brassicae
Text: Biological Activity on Pieris Brassicae (Lepidoptera)
Cut leaves of cauliflower were sprayed with an aqueous dispersion of compound according to this invention at a 0.1% concentration. After drying, they were infested with 5-day old larvae. The mortality percentage of the control, untreated leaves, was zero.
as §1

[3] = test system: Leptinotarsa decemlineata; experiment: Persistence of insecticidal activity in the field, Leptinotarsa decemlineata on potato plants; details: 0.2 percent
Text: The persistence of insecticidal activity in the field using the insect Leptinotarsa decemlineata was examined as follows:
Potato plants grown in the field under natural conditions were sprinkled with an aqueous suspension of compound M 7361 which is according to this invention and identified hereinabove. For purposes of comparison, similarly grown potato plants were sprinkled with an aqueous suspension of the compounds M 7488 and M 7481, respectively, both according to U.S. Pat. No. 3,819,678 and identified above.
After the time periods shown in Table 17, leaves of the sprinkled plants were picked and brought to the laboratory where they were infested with 10 day-old larvae of Leptinotarsa decemlineata and then kept under observation. After 48 hours, the percent of mortality of the insects was determined. The mortality percent of the control unsprinkled leaves was zero.

[4] = test system: Leptinotarsa Decimlineata; experiment: Biological activity on Leptinotarsa decemlineata larvae, sprayed potato seedlings; details: read-out: % mort. Leptinot. Decemlin.
Text: Biological Activity on Leptinotarsa Decimlineata Coleoptera
Potato seedlings cultivated in pots were infested with 4-day old larvae and sprayed with an aqueous dispersion of the compounds according to this invention and Aminocarb as a comparison at doses of […]; respectively. The mortality percentage of the control, untreated seedlings, was zero.
as §1

Culex Pipiens = experiment: Biological activity on Culex pipiens (mosquito larvae in aqueous dispersion); details: read-out: % mort. Culex Pipiens
Text: Biological Activity on Culex Pipiens (Diptera)
Mosquito larvae of the third and fourth ages were introduced into glass pots containing an aqueous dispersion of the compounds shown at 2 ppm and 0.2 ppm.
as §1

Tetranychus Urticae = experiment: Biological activity on Tetranychus urticae eggs, bean leaf discs; details: topical, read-out: % mort. Tetran. Urt. eggs
Text: Biological Activity on Tetranychus Urticae (Acari)
Small discs of bean leaves were infested with acarus eggs and successively treated by spraying with an aqueous dispersion of a compound of this invention and Aminocarb as a comparison, at concentrations of 0.1 and 0.01%. The mortality percentage of the control, untreated discs, was zero.
as §1

Spodoptera Littoralis [5] = experiment: Persistence of insecticidal activity in the field, Spodoptera littoralis on Ricinus plants; details: one percent, read-out: Mortality Percent of Spodoptera Littoralis Larvae
Text: The persistence of insecticidal activity in the field using the insect Spodoptera littoralis was examined as follows:
Ricinus plants grown in the field under natural conditions were sprinkled with an aqueous suspension of the insecticidal compounds according to this invention designated hereinabove as M 7361 and M 8157. For purposes of comparison, an aqueous suspension of each of M 7481 and M 7488, according to U.S. Pat. No. 3,819,678 and identified above, was sprinkled on similarly grown Ricinus plants.
After the time periods shown in Table 16, leaves of the sprinkled plants were picked and brought to the laboratory where they were infested with 10-day old larvae of Spodoptera littoralis and then kept under observation. The mortality percent of the control unsprinkled leaves was zero.

Spodoptera Littoralis [6] = experiment: Biological activity on Spodoptera littoralis larvae, sprayed cut tobacco leaves; details: 48 h, read-out: % mort. Spodopt. Littoralis
Text: Biological Activity on Spodoptera Littoralis (Lepidoptera)
Cut tobacco leaves were sprayed with a 0.1% aqueous dispersion of compounds according to the present invention, shown in Table 12. After drying, the leaves were infested with 5-day old lepidopter larvae. The mortality percentage of the control was zero.
as §1

Musca Domestica = experiment: Biological activity on Musca domestica, topical application to adults; details: 24 h, read-out: Percent of Mortality
Experimental: Biological Activity on Musca Domestica (Diptera)
Four day old adults were treated by topical application through a microsyringe with 1 mm^3 of an acetonic solution of the compounds shown in such concentrations that they received doses of 5γ/insect; 2γ/insect; 0.5γ/insect of active principle. The mortality percentage 24 hours after the treatment is reported in Table 8 (mortality of insects treated with 1 mm^3 of acetone = 0).

[7] = 120 h, 5 days after field treatment
[8] = 216 h, 9 days after field treatment
[9] = 336 h, 14 days after field treatment
[10] = 408 h, 17 days after field treatment
[11] = 528 h, 22 days after field treatment
[12] = 96 h, 4 days after field treatment
[13] = 168 h, 7 days after field treatment
[14] = 264 h, 11 days after field treatment
[15] = 432 h, 18 days after field treatment
[16] = 600 h, 25 days after field treatment
[17] = read-out: % mort. Macrosiphum Euphorbiae

CNC(=O)Oc1cc(C)ccc1NCC(Cl)=C(Cl)Cl [M 6773, N-methylcarbamate of 3-methyl-6-(2,3,3-trichloroallylamino)-phenol]
mortality at 0.01 % (Macrosiphum Euphorbiae; 24 h, read-out: Mortality Percent): 75%

CNC(=O)Oc1cc(C)c(NCC=C(Cl)Cl)c(C)c1 [M 7361]
period for which insecticidal activity is fully retained in the field (Pieris Brassicae [1]): at least 22 days
mortality at 0.5 % (Pieris Brassicae [1]; 2 hours after field treatment): 100%
mortality at 0.5 % (Pieris Brassicae [1]; [7]): 100%
mortality at 0.5 % (Pieris Brassicae [1]; [8]): 100%
mortality at 0.5 % (Pieris Brassicae [1]; [9]): 100%
mortality at 0.5 % (Pieris Brassicae [1]; [10]): 100%
mortality at 0.5 % (Pieris Brassicae [1]; [11]): 100%
mortality at 0.01 % (Pieris Brassicae [2]; Table 14, 0.01% a.p.): 15%
mortality at 0.1 % (Pieris Brassicae [2]; Table 14, 0.1% a.p.): 97%
mortality at 1 % (Pieris Brassicae [2]; Table 14, 1% a.p.): 100%
mortality at 0.2 % ([3]; 2 hours after field treatment): 100%
mortality at 0.2 % [3, 12]: 100%
mortality at 0.2 % [3, 13]: 100%
mortality at 0.2 % [3, 14]: 100%
mortality at 0.2 % [3, 15]: 100%
mortality at 0.2 % [3, 16]: 73%
mortality at 0.01 % [4]: 52%
mortality at 0.1 % [4]: 97%
mortality at 1 % [4]: 100%
mortality at 2 ppm (Culex Pipiens): 40%
mortality at 1 % (Tetranychus Urticae): 13%
mortality at 1 % (Spodoptera Littoralis [5]; [7]): 100%
mortality at 1 % (Spodoptera Littoralis [5]; [14]): 100%
mortality at 1 % (Spodoptera Littoralis [5]; [9]): 100%
mortality at 1 % (Spodoptera Littoralis [5]; [15]): 100%
mortality at 1 % (Spodoptera Littoralis [5]; [16]): 100%
mortality at 1 % (Spodoptera Littoralis [5]; 2 hours after field treatment): 100%
mortality at 0.01 % (Macrosiphum Euphorbiae; [17]): 17%
mortality at 0.1 % (Macrosiphum Euphorbiae; [17]): 81%
mortality at 1 % (Macrosiphum Euphorbiae; [17]): 100%
mortality at 0.01 % (Spodoptera Littoralis [6]; Table 14, 0.01% a.p.): 7%
mortality at 0.1 % (Spodoptera Littoralis [6]; Table 14, 0.1% a.p.): 72%
mortality at 1 % (Spodoptera Littoralis [6]; Table 14, 1% a.p.): 100%

CNC(=O)Oc1cc(C)c(N(C)CC=C(Cl)Cl)c(C)c1 [M 7481, reference compound]
time after which totally ineffective in the field (Pieris Brassicae [1]): 14 days
time at which activity begins to be lost in the field (Pieris Brassicae [1]): 2 to 5 days
mortality at 0.5 % (Pieris Brassicae [1]; 2 hours after field treatment): 100%
mortality at 0.5 % (Pieris Brassicae [1]; [7]): 55%
mortality at 0.5 % (Pieris Brassicae [1]; [8]): 30%
mortality at 0.5 % (Pieris Brassicae [1]; [9]): 0%
mortality at 0.5 % (Pieris Brassicae [1]; [10]): 0%
mortality at 0.5 % (Pieris Brassicae [1]; [11]): 0%
mortality at 0.2 % ([3]; 2 hours after field treatment): 100%
mortality at 0.2 % [3, 12]: 60%
mortality at 0.2 % [3, 13]: 20%
mortality at 0.2 % [3, 14]: 0%
mortality at 0.2 % [3, 15]: 0%
mortality at 0.2 % [3, 16]: 0%
mortality at 1 % (Spodoptera Littoralis [5]; [7]): 100%
mortality at 1 % (Spodoptera Littoralis [5]; [14]): 77%
mortality at 1 % (Spodoptera Littoralis [5]; [9]): 60%
mortality at 1 % (Spodoptera Littoralis [5]; [15]): 47%
mortality at 1 % (Spodoptera Littoralis [5]; [16]): 40%
mortality at 1 % (Spodoptera Littoralis [5]; 2 hours after field treatment): 100%

CNC(=O)Oc1cc(C)c(N(CC=C(Cl)Cl)CC=C(Cl)Cl)c(C)c1 [M 7488, reference compound]
mortality at 0.2 % ([3]; 2 hours after field treatment): 100%
mortality at 0.2 % [3, 12]: 70%
mortality at 0.2 % [3, 13]: 20%
mortality at 0.2 % [3, 14]: 10%
mortality at 0.2 % [3, 15]: 0%
mortality at 0.2 % [3, 16]: 0%
mortality at 1 % (Spodoptera Littoralis [5]; [7]): 92%
mortality at 1 % (Spodoptera Littoralis [5]; [14]): 47%
mortality at 1 % (Spodoptera Littoralis [5]; [9]): 38%
mortality at 1 % (Spodoptera Littoralis [5]; [15]): 22%
mortality at 1 % (Spodoptera Littoralis [5]; [16]): 0%
mortality at 1 % (Spodoptera Littoralis [5]; 2 hours after field treatment): 100%

CNC(=O)Oc1cc(C)c(NCC(Cl)=C(Cl)Cl)c(C)c1 [M 8157]
period for which insecticidal activity is fully retained in the field (Pieris Brassicae [1]): at least 22 days
mortality at 0.5 % (Pieris Brassicae [1]; 2 hours after field treatment): 100%
mortality at 0.5 % (Pieris Brassicae [1]; [7]): 100%
mortality at 0.5 % (Pieris Brassicae [1]; [8]): 100%
mortality at 0.5 % (Pieris Brassicae [1]; [9]): 100%
mortality at 0.5 % (Pieris Brassicae [1]; [10]): 100%
mortality at 0.5 % (Pieris Brassicae [1]; [11]): 100%
mortality at 1 % (Spodoptera Littoralis [5]; [7]): 100%
mortality at 1 % (Spodoptera Littoralis [5]; [14]): 100%
mortality at 1 % (Spodoptera Littoralis [5]; [9]): 100%
mortality at 1 % (Spodoptera Littoralis [5]; [15]): 100%
mortality at 1 % (Spodoptera Littoralis [5]; [16]): 100%
mortality at 1 % (Spodoptera Littoralis [5]; 2 hours after field treatment): 100%

CNC(=O)Oc1cc(C)c(N(C)C)c(C)c1 [Zectran, reference compound]
mortality at 0.5 µg/insect (Musca Domestica): 0%
mortality at 2 µg/insect (Musca Domestica): 60%
